# Reference: ChEMBL document CHEMBL6134808, “Sertraline and Astemizole Enhance the Deubiquitinase Activity of USP7 by Binding to Its Switching Loop Region” (J Med Chem, 2025)
# Activity calls are given as the source filed them. The rule behind the calls is not given here.
# Tests used:
# [1] = molecular target: T1, Ubiquitin carboxyl-terminal hydrolase 7 (Homo sapiens, UniProt Q93009); conditions: filed as activator
# Target sequence in this assay (Q93009 whole entry, looked up): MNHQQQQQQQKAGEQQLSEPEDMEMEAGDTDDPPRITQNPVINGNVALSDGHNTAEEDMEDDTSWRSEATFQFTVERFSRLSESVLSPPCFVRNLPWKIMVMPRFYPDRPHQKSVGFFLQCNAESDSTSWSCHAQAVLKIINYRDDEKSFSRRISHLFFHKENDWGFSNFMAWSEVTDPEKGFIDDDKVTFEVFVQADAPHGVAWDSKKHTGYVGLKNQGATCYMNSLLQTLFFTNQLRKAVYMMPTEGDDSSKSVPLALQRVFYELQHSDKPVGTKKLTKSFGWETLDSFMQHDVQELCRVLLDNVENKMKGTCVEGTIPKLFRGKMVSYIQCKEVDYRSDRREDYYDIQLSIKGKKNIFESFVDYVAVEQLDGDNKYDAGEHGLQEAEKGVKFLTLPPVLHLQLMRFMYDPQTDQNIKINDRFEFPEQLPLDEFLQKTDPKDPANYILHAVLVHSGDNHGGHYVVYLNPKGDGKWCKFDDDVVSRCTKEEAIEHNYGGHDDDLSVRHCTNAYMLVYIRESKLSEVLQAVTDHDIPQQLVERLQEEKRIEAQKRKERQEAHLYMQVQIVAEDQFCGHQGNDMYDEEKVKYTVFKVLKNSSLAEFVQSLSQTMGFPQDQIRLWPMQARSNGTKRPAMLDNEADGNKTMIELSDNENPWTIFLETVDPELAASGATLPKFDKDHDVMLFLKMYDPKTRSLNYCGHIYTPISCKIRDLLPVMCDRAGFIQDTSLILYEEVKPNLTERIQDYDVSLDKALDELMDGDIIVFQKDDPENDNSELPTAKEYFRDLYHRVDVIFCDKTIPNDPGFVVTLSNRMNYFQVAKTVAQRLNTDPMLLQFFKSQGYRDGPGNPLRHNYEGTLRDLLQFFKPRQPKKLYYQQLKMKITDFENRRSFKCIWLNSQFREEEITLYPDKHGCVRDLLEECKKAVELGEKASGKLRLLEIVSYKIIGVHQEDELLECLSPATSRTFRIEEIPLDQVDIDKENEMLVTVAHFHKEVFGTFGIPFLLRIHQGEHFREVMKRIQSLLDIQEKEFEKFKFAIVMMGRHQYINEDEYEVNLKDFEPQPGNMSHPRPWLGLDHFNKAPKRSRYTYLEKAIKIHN
# [2] = system: Ubiquitin carboxyl-terminal hydrolase 7 (Homo sapiens), Q93009 [I766T]; conditions: filed as activator, time 15.0 min
# [3] = molecular target: T1, Ubiquitin carboxyl-terminal hydrolase 7; assay: Activation of USP7 catalytic domain (208 to 560 residues) (unknown origin) expressed in Escherichia coli BL21(DE3) assessed as decrease in thermal stability of protein at 250 uM by SYPRO orange dye based fluorescence analysis; conditions: filed as activator
# Target sequence in this assay (Q93009 whole entry, looked up): as above
# [4] = molecular target: T1, Ubiquitin carboxyl-terminal hydrolase 7; assay: Activation of USP7 catalytic domain (208 to 560 residues) (unknown origin) expressed in Escherichia coli BL21(DE3) assessed as upregulation of Kcat of enzyme using Ub-AMC as substrate at 200 uM preincubated for 15 mins followed by Ub-AMC addition and measured for 1 hr by fluorescence based analysis; conditions: filed as activator, time 75.0 min
# Target sequence in this assay (Q93009 whole entry, looked up): as above
# [5] = system: Ubiquitin carboxyl-terminal hydrolase 7 (Homo sapiens), Q93009 [L757P]; conditions: filed as activator, time 15.0 min
# [6] = molecular target: T1, Ubiquitin carboxyl-terminal hydrolase 7; conditions: filed as activator, time 15.0 min
# Target sequence in this assay (Q93009 whole entry, looked up): as above
# [7] = system: Ubiquitin carboxyl-terminal hydrolase 7 (Homo sapiens), Q93009 [D1080N]; conditions: filed as activator, time 15.0 min
# [8] = organism: Homo sapiens; assay: Binding affinity to MTSL-labeled USP7CD-CTP N1102C mutant (unknown origin) expressed in Escherichia coli BL21(DE3) assessed as complex formation of compound and CTP with switching loop region of USP7 at 200 uM by CPMG spectral analysis; conditions: filed as activator
# [9] = molecular target: T1, Ubiquitin carboxyl-terminal hydrolase 7; assay: Activation of USP7 catalytic domain (208 to 560 residues) (unknown origin) expressed in Escherichia coli BL21(DE3) assessed as Ub-AMC hydrolysis preincubated for 15 mins followed by Ub-AMC addition and measured every 1 min by fluorescence based analysis
# Target sequence in this assay (Q93009 whole entry): as the sequence (Q93009 whole entry, looked up) above
# Chain of Ubiquitin carboxyl-terminal hydrolase 7 (Homo sapiens), Q93009 [L757P] (Q93009 whole entry L757P): as the sequence (Q93009 whole entry, looked up) above, with L757P counted along it
# Chain of Ubiquitin carboxyl-terminal hydrolase 7 (Homo sapiens), Q93009 [D1080N] (Q93009 whole entry D1080N): as the sequence (Q93009 whole entry, looked up) above, with D1080N counted along it
# Chain of Ubiquitin carboxyl-terminal hydrolase 7 (Homo sapiens), Q93009 [I766T] (Q93009 whole entry I766T, the tested form may be a part): as the sequence (Q93009 whole entry, looked up) above, with I766T counted along it
EC1.5 [1],EC1.5 [2],Activity [3],Activity [4],EC1.5 [5],EC1.5 [6],EC1.5 [7],Activity [8],EC50 [9],Compound
5.61 µM,1.27 µM,Active,Active,8.98 µM,2.19 µM,6.54 µM,Active,32.2 µM,COc1ccc(CCN2CCC(Nc3nc4ccccc4n3Cc3ccc(F)cc3)CC2)cc1 [ASTEMIZOLE]
–,–,–,–,–,–,–,Active,–,CN[C@H]1CC[C@@H](c2ccc(Cl)c(Cl)c2)c2ccccc21
